Species on record: Rattus norvegicus
Experiment: Open TG-GATES - Regimen: Single
Assay type: toxicity, organism-based, Sprague-Dawley
Parameters: regimen Single, gender Male, age 6 weeks
Settings: in vivo, po, 0 mg/kg, route gavage, dose level Control; for APTT / Bas / Eos / Fbg / Hb / Ht / Lym / MCH / MCHC / MCV / Mono / Neu / PT / Plat / RBC / Ret / WBC: tissue Blood; for KIDNEY_L / KIDNEY_R / KIDNEY_TOTAL: tissue Kidney; for LIVER: tissue Liver

## CC(=O)N1CCN(c2ccc(OCC3COC(Cn4ccnc4)(c4ccc(Cl)cc4Cl)O3)cc2)CC1 (stereo not given) [KETOCONAZOLE]
3 h
  TERMINAL_BW: 204 g
  APTT: 20.5 s
  Bas: 0%
  Eos: 0.8%
  Fbg: 282.4 mg/dL
  Hb: 12.8 g/dL
  Ht: 38.4%
  Lym: 76.4%
  MCH: 21.5 pg
  MCHC: 33.4%
  MCV: 64.4 fL
  Mono: 1.6%
  Neu: 19.8%
  PT: 16.9 s
  Plat: 117 x10_4/uL
  RBC: 596.2 x10_4/ul
  Ret: 8.8%
  WBC: 73.4 x10_2/uL
  KIDNEY_L: 0.9 g
  KIDNEY_R: 0.9 g
  KIDNEY_TOTAL: 1.9 g
  LIVER: 9.8 g
3 h, tissue Plasma
  ALP: 1856.6 IU/L
  AST: 76.2 IU/L
  BUN: 13.2 mg/dL
  CRE: 0.2 mg/dL
  Ca: 11 mg/dL
  Cl: 104.8 meq/L
  DBIL: 0.004 mg/dL
  GLC: 175.4 mg/dL
  IP: 7.9 mg/dL
  LDH: 167.6 IU/L
  Na: 141.8 meq/L
  PL: 135 mg/dL
  RALB: 2.9 g/dL
  TBIL: 0.016 mg/dL
  TC: 74.8 mg/dL
  TG: 63.2 mg/dL
  TP: 5.4 g/dL
  gamma-GTP: 1 IU/L
6 h
  TERMINAL_BW: 204.2 g
  APTT: 21.3 s
  Bas: 0%
  Eos: 0.8%
  Fbg: 293.6 mg/dL
  Hb: 13.2 g/dL
  Ht: 39.7%
  Lym: 83.2%
  MCH: 21.5 pg
  MCHC: 33.2%
  MCV: 64.7 fL
  Mono: 1.8%
  Neu: 13.4%
  PT: 16.9 s
  Plat: 122.1 x10_4/uL
  RBC: 613.4 x10_4/ul
  Ret: 8.4%
  WBC: 78.2 x10_2/uL
  KIDNEY_L: 1 g
  KIDNEY_R: 1 g
  KIDNEY_TOTAL: 1.9 g
  LIVER: 9.1 g
6 h, tissue Plasma
  ALP: 1433 IU/L
  AST: 71 IU/L
  BUN: 9.6 mg/dL
  CRE: 0.2 mg/dL
  Ca: 10.8 mg/dL
  Cl: 105.6 meq/L
  DBIL: 0 mg/dL
  GLC: 176.8 mg/dL
  IP: 8.4 mg/dL
  LDH: 197.4 IU/L
  Na: 141.2 meq/L
  PL: 124.2 mg/dL
  RALB: 2.9 g/dL
  TBIL: 0.022 mg/dL
  TC: 67.6 mg/dL
  TG: 47.6 mg/dL
  TP: 5.4 g/dL
  gamma-GTP: 1 IU/L
9 h
  TERMINAL_BW: 201.8 g
  APTT: 21.3 s
  Bas: 0%
  Eos: 1.2%
  Fbg: 294.4 mg/dL
  Hb: 13 g/dL
  Ht: 38.9%
  Lym: 75%
  MCH: 21.1 pg
  MCHC: 33.3%
  MCV: 63.3 fL
  Mono: 1.8%
  Neu: 21.4%
  PT: 16.4 s
  Plat: 138.7 x10_4/uL
  RBC: 615.6 x10_4/ul
  Ret: 7.7%
  WBC: 69.1 x10_2/uL
  KIDNEY_L: 1 g
  KIDNEY_R: 1 g
  KIDNEY_TOTAL: 1.9 g
  LIVER: 8.6 g
9 h, tissue Plasma
  ALP: 1580.4 IU/L
  AST: 75 IU/L
  BUN: 10.2 mg/dL
  CRE: 0.2 mg/dL
  Ca: 10.4 mg/dL
  Cl: 106 meq/L
  DBIL: 0.008 mg/dL
  GLC: 180.4 mg/dL
  IP: 9.5 mg/dL
  LDH: 227.2 IU/L
  Na: 142.2 meq/L
  PL: 125.6 mg/dL
  RALB: 3.1 g/dL
  TBIL: 0.026 mg/dL
  TC: 67.2 mg/dL
  TG: 52.6 mg/dL
  TP: 5.5 g/dL
  gamma-GTP: 1 IU/L
24 h
  TERMINAL_BW: 213.9 g
  APTT: 19.8 s
  Bas: 0%
  Eos: 0.8%
  Fbg: 307.2 mg/dL
  Hb: 13.3 g/dL
  Ht: 38.9%
  Lym: 77.6%
  MCH: 21.8 pg
  MCHC: 34.2%
  MCV: 63.9 fL
  Mono: 2%
  Neu: 19%
  PT: 16.7 s
  Plat: 117.4 x10_4/uL
  RBC: 609 x10_4/ul
  Ret: 7.5%
  WBC: 70.3 x10_2/uL
  KIDNEY_L: 1 g
  KIDNEY_R: 1 g
  KIDNEY_TOTAL: 2 g
  LIVER: 10.4 g
24 h, tissue Plasma
  ALP: 1980.8 IU/L
  ALT: 44 IU/L
  AST: 73.2 IU/L
  BUN: 16.4 mg/dL
  CRE: 0.2 mg/dL
  Ca: 10.7 mg/dL
  Cl: 107.2 meq/L
  DBIL: 0 mg/dL
  GLC: 185.6 mg/dL
  IP: 6.5 mg/dL
  LDH: 211.2 IU/L
  Na: 142.2 meq/L
  PL: 147 mg/dL
  RALB: 3.1 g/dL
  TBIL: 0.002 mg/dL
  TC: 76.6 mg/dL
  TG: 107.6 mg/dL
  TP: 5.6 g/dL

From ChEMBL document CHEMBL3885861, “Open TG-GATES”
